Assay results published in PubChem BioAssay AID1259407 (Chemical Carcinogenesis Research Information System (CCRIS), 2018).
Active and inactive are the calls of the source. No rule for the calls is given here.

System: CCRIS mutagenicity, Ames/micronucleus/aberration tests
Experiment: CCRIS mutagenicity studies
[1] = Test System: AMES SALMONELLA TYPHIMURIUM, Strain/Indicator: TA98, Metabolic Activation: NONE, Method: STANDARD PLATE
[2] = Test System: AMES SALMONELLA TYPHIMURIUM, Strain/Indicator: TA1535, Metabolic Activation: NONE, Method: STANDARD PLATE
[3] = Test System: AMES SALMONELLA TYPHIMURIUM, Strain/Indicator: TA1537, Metabolic Activation: NONE, Method: STANDARD PLATE
[4] = Test System: AMES SALMONELLA TYPHIMURIUM, Strain/Indicator: TA98, Metabolic Activation: RAT, LIVER, S-9, AROCLOR 1254, Method: STANDARD PLATE
[5] = Test System: AMES SALMONELLA TYPHIMURIUM, Strain/Indicator: TA100, Metabolic Activation: NONE, Method: STANDARD PLATE
[6] = Test System: AMES SALMONELLA TYPHIMURIUM, Strain/Indicator: TA98, Metabolic Activation: NONE, Method: PREINCUBATION

CC(C)NCC1CCc2cc(CO)c([N+](=O)[O-])cc2N1 (stereo not given)
mutagenic call [1]: active; positive | mutagenic call (Test System: AMES SALMONELLA TYPHIMURIUM, Strain/Indicator: TA98, Metabolic Activation: RAT, LIVER, S-9, AROCLOR 1254 OR PHENOBARBITOL, Method: STANDARD PLATE): active; positive | mutagenic call (Test System: AMES SALMONELLA TYPHIMURIUM, Strain/Indicator: TA100(FR1), Metabolic Activation: NONE, Method: STANDARD PLATE): inactive; negative | mutagenic call (Test System: AMES SALMONELLA TYPHIMURIUM, Strain/Indicator: TA100(FR1), Metabolic Activation: RAT, LIVER, S-9, PHENOBARBITAL AND 3-METHYLCHOLANTHRENE, Method: STANDARD PLATE): inactive; negative | mutagenic call (Test System: AMES SALMONELLA TYPHIMURIUM, Strain/Indicator: TA100, Metabolic Activation: RAT, LIVER, S-9, AROCLOR 1254 OR PHENOBARBITOL, Method: STANDARD PLATE): active; positive | mutagenic call (Test System: AMES SALMONELLA TYPHIMURIUM, Strain/Indicator: TA100, Metabolic Activation: RAT, LIVER, S-9, PHENOBARBITAL AND 3-METHYLCHOLANTHRENE, Method: STANDARD PLATE): inactive; negative | mutagenic call [2]: inactive; negative | mutagenic call (Test System: AMES SALMONELLA TYPHIMURIUM, Strain/Indicator: TA1535, Metabolic Activation: RAT, LIVER, S-9, AROCLOR 1254 OR PHENOBARBITOL, Method: STANDARD PLATE): inactive; negative | mutagenic call [3]: inactive; negative | mutagenic call (Test System: AMES SALMONELLA TYPHIMURIUM, Strain/Indicator: TA1537, Metabolic Activation: RAT, LIVER, S-9, AROCLOR 1254 OR PHENOBARBITOL, Method: STANDARD PLATE): inactive; negative | mutagenic call (Test System: AMES SALMONELLA TYPHIMURIUM, Strain/Indicator: TA1538, Metabolic Activation: NONE, Method: STANDARD PLATE): inactive; negative | mutagenic call (Test System: AMES SALMONELLA TYPHIMURIUM, Strain/Indicator: TA1538, Metabolic Activation: RAT, LIVER, S-9, AROCLOR 1254 OR PHENOBARBITOL, Method: STANDARD PLATE): inactive; negative | mutagenic call (Test System: CHINESE HAMSTER V-79, Strain/Indicator: V-79/6-THIOGUANINE, Metabolic Activation: NONE): active; positive | mutagenic call (Test System: CHINESE HAMSTER V-79, Strain/Indicator: V-79/6-THIOGUANINE, Metabolic Activation: RAT, LIVER, HEPATOCYTES): active; positive | mutagenic call (Test System: CHINESE HAMSTER V-79, Strain/Indicator: V-79/OUABAIN, Metabolic Activation: NONE): active; positive | mutagenic call (Test System: CHINESE HAMSTER V-79, Strain/Indicator: V-79/OUABAIN, Metabolic Activation: RAT, LIVER, HEPATOCYTES): active; positive

c1ccc2c(c1)ccc1[nH]c3ccc4ccccc4c3c12
mutagenic call [1]: inactive; negative | mutagenic call (Test System: AMES SALMONELLA TYPHIMURIUM, Strain/Indicator: TA98, Metabolic Activation: RAT, LIVER, S-9, 3-METHYLCHOLANTHRENE, Method: STANDARD PLATE): inactive; negative | mutagenic call [4]: inactive; negative | mutagenic call (Test System: AMES SALMONELLA TYPHIMURIUM, Strain/Indicator: TA98, Metabolic Activation: RAT, LIVER, S-9, PHENOBARBITAL, Method: STANDARD PLATE): inactive; negative | mutagenic call (Test System: AMES SALMONELLA TYPHIMURIUM, Strain/Indicator: TA100, Metabolic Activation: MOUSE, LIVER, S-9, BETA-NAPHTHOFLAVONE, Method: STANDARD PLATE): inactive; negative | mutagenic call (Test System: AMES SALMONELLA TYPHIMURIUM, Strain/Indicator: TA100, Metabolic Activation: MOUSE, LIVER, S-9, PHENOBARBITAL, Method: STANDARD PLATE): inactive; negative | mutagenic call [5]: inactive; negative | mutagenic call (Test System: AMES SALMONELLA TYPHIMURIUM, Strain/Indicator: TA100, Metabolic Activation: RABBIT, LIVER, S-9, BENZO[A]PYRENE, Method: STANDARD PLATE): inactive; negative | mutagenic call (Test System: AMES SALMONELLA TYPHIMURIUM, Strain/Indicator: TA100, Metabolic Activation: RAT, LIVER, S-9, PHENOBARBITAL, Method: STANDARD PLATE): inactive; negative | mutagenic call (Test System: AMES SALMONELLA TYPHIMURIUM, Strain/Indicator: TM677, Metabolic Activation: NONE, Method: PREINCUBATION): inactive; negative | mutagenic call (Test System: AMES SALMONELLA TYPHIMURIUM, Strain/Indicator: TM677, Metabolic Activation: RAT, LIVER, S-9, 3-METHYLCHOLANTHRENE (1%), Method: PREINCUBATION): active; positive | mutagenic call (Test System: AMES SALMONELLA TYPHIMURIUM, Strain/Indicator: TM677, Metabolic Activation: RAT, LIVER, S-9, 3-METHYLCHOLANTHRENE (10%), Method: PREINCUBATION): inactive; negative

c1ccc2c(c1)-c1cc3ccccc3cc1[C@@H]1N[C@H]21
mutagenic call [6]: active; positive | mutagenic call [1]: active; positive | mutagenic call [5]: active; positive

O=c1[nH]c(=O)n(Cl)c(=O)n1Cl
mutagenic call (Test System: AMES SALMONELLA TYPHIMURIUM, Strain/Indicator: TA98, Metabolic Activation: HAMSTER, LIVER, S-9, AROCLOR 1254 (10%), Method: PREINCUBATION): inactive; negative | mutagenic call [6]: inactive; negative | mutagenic call (Test System: AMES SALMONELLA TYPHIMURIUM, Strain/Indicator: TA98, Metabolic Activation: RAT, LIVER, S-9, AROCLOR 1254 (10%), Method: PREINCUBATION): inactive; negative | mutagenic call (Test System: AMES SALMONELLA TYPHIMURIUM, Strain/Indicator: TA100, Metabolic Activation: HAMSTER, LIVER, S-9, AROCLOR 1254 (10%), Method: PREINCUBATION): inactive; negative | mutagenic call (Test System: AMES SALMONELLA TYPHIMURIUM, Strain/Indicator: TA100, Metabolic Activation: NONE, Method: PREINCUBATION): inactive; negative | mutagenic call (Test System: AMES SALMONELLA TYPHIMURIUM, Strain/Indicator: TA100, Metabolic Activation: RAT, LIVER, S-9, AROCLOR 1254 (10%), Method: PREINCUBATION): inactive; negative | mutagenic call (Test System: AMES SALMONELLA TYPHIMURIUM, Strain/Indicator: TA1535, Metabolic Activation: HAMSTER, LIVER, S-9, AROCLOR 1254 (10%), Method: PREINCUBATION): inactive; negative | mutagenic call (Test System: AMES SALMONELLA TYPHIMURIUM, Strain/Indicator: TA1535, Metabolic Activation: NONE, Method: PREINCUBATION): inactive; negative | mutagenic call (Test System: AMES SALMONELLA TYPHIMURIUM, Strain/Indicator: TA1535, Metabolic Activation: RAT, LIVER, S-9, AROCLOR 1254 (10%), Method: PREINCUBATION): inactive; negative | mutagenic call (Test System: AMES SALMONELLA TYPHIMURIUM, Strain/Indicator: TA1537, Metabolic Activation: HAMSTER, LIVER, S-9, AROCLOR 1254 (10%), Method: PREINCUBATION): inactive; negative | mutagenic call (Test System: AMES SALMONELLA TYPHIMURIUM, Strain/Indicator: TA1537, Metabolic Activation: NONE, Method: PREINCUBATION): inactive; negative | mutagenic call (Test System: AMES SALMONELLA TYPHIMURIUM, Strain/Indicator: TA1537, Metabolic Activation: RAT, LIVER, S-9, AROCLOR 1254 (10%), Method: PREINCUBATION): inactive; negative

CC(CF)NCC(O)COc1cccc2[nH]c3ccccc3c12 (stereo not given)
mutagenic call [1]: inactive; negative | mutagenic call (Test System: AMES SALMONELLA TYPHIMURIUM, Strain/Indicator: TA98, Metabolic Activation: RAT LIVER S-9, AROCLOR 1254, 5%, Method: STANDARD PLATE): inactive; negative | mutagenic call [5]: active; positive | mutagenic call (Test System: AMES SALMONELLA TYPHIMURIUM, Strain/Indicator: TA100, Metabolic Activation: RAT LIVER S-9, AROCLOR 1254, 5%, Method: STANDARD PLATE): active; positive | mutagenic call [2]: active; positive | mutagenic call (Test System: AMES SALMONELLA TYPHIMURIUM, Strain/Indicator: TA1535, Metabolic Activation: RAT LIVER S-9, AROCLOR 1254, 5%, Method: STANDARD PLATE): active; positive

c1ccc([C@H]2O[C@@H]2c2ccccc2)cc1
mutagenic call [5]: inactive; negative | mutagenic call [2]: inactive; negative

CC1CCC(C(C)C)C(=O)C1 (stereo not given)
mutagenic call (Test System: AMES SALMONELLA TYPHIMURIUM, Strain/Indicator: TA97, Metabolic Activation: NONE, Method: STANDARD PLATE): active; positive | mutagenic call [1]: inactive; negative | mutagenic call [4]: inactive; negative | mutagenic call [5]: inactive; negative | mutagenic call (Test System: AMES SALMONELLA TYPHIMURIUM, Strain/Indicator: TA100, Metabolic Activation: RAT, LIVER, S-9, AROCLOR 1254, Method: STANDARD PLATE): inactive; negative | mutagenic call [2]: inactive; negative | mutagenic call (Test System: AMES SALMONELLA TYPHIMURIUM, Strain/Indicator: TA1535, Metabolic Activation: RAT, LIVER, S-9, AROCLOR 1254, Method: STANDARD PLATE): inactive; negative | mutagenic call [3]: inactive; negative | mutagenic call (Test System: AMES SALMONELLA TYPHIMURIUM, Strain/Indicator: TA1537, Metabolic Activation: RAT, LIVER, S-9, AROCLOR 1254, Method: STANDARD PLATE): inactive; negative
